Columns and labels:
Echinochloa crus-galli = test: Post-emergence application in field trials, ECHCG; type: in vivo; conditions: 7 DAT
Procedure: (§1) In the examples below, using the method of S. R. Colby (1967) “Calculating synergistic and antagonistic responses of herbicide combinations”, Weeds 15, p. 22ff., the value E, which is expected if the activity of the individual active compounds is only additive, was calculated:
(§2) [formula] • where • X=percent activity using active herbicide A at an application rate a; • Y=percent activity using active herbicide B (i.e. isoxaflutole) at an application rate b; • E=expected activity (in %) by A+B at application rates a+b.
(§3) If the value found experimentally is higher than the value E calculated according to Colby, a synergistic effect is present.
(§4) On field test sites, natural weed infestation or seeded weeds were treated post-emergence of the weeds.
(§5) In the field trials, the weeds were treated as indicated below.
(§6) In the following experiments, the herbicidal activity for the individual herbicidal compositions (solo and mixture applications) was assessed at the indicated days after treatment (DAT). The assessments for the damage on undesired weeds caused by the composition was carried out using a scale from 0 to 100%, compared to the untreated control plants. Here, 0 means no damage and 100 means complete destruction of the plants.
(§7) Herbicide A-1 and isoxaflutole (240 g/l SC) were, together with addition of 0.25 v/v % MSO (methylated sed oil) as adjuvant, formulated in water as distribution medium (water volume 200 l/ha) and sprayed with commercial flat fan nozzles.
(§8) Herbicide A-1 and isoxaflutole (240 g/l SC, Balance Flexx®) were, together with addition of 0.25 v/v % MSO (methylated sed oil) as adjuvant, formulated in water as distribution medium (water volume 200 l/ha) and sprayed with commercial flat fan nozzles.
(§9) Herbicide A-1, isoxaflutole (240 g/l SC) and saflufenacil (342 g/l) were, together with addition of 0.25 v/v % MSO (methylated sed oil) as adjuvant, formulated in water as distribution medium (water volume 200 l/ha) and sprayed with commercial flat fan nozzles.
(§10) Herbicide A-1, isoxaflutole (240 g/l SC), saflufenacil (342 g/l) and pyroxasulfone were, together with addition of 0.25 v/v % MSO (methylated sed oil) as adjuvant, formulated in water as distribution medium (water volume 200 l/ha) and sprayed with commercial flat fan nozzles.

Lolium multiflorum = test: Post-emergence application in field trials, LOLMU; type: in vivo; conditions: LOLMU height 20-25 cm, 12.5 g ai/ha
Procedure: as §1, §2, §3, §4, §5, §6, §10

Zea mays = test: Post-emergence application in field trials, ZEAMX; type: in vivo
Procedure: as §1, §2, §3, §4, §5, §6, §7, §8, §9, §10

HORVW = test: Post-emergence application in field trials, HORVW; type: in vivo, Hordeum vulgare; conditions: HORVW height 20-25 cm, 12.5 g ai/ha
Procedure: as §1, §2, §3, §4, §5, §6, §10

Datura stramonium = test: Post-emergence application in field trials, DATST; type: in vivo; conditions: Table 4.2; DATST growth stage 14-16, height 5-10 cm; 42 DAT; 12.5 g ai/ha
Procedure: as §1, §2, §3, §4, §5, §6, §7, §9

CC(C)N(C)S(=O)(=O)NC(=O)c1cc(-n2c(=O)cc(C(F)(F)F)n(C)c2=O)c(F)cc1Cl [C-1, saflufenacil]
% herbicidal activity (Echinochloa crus-galli; Table 4.1, ECHCG growth stage 23-30, height 15-20 cm, 12.5 g ai/ha): 20% | % herbicidal activity (Echinochloa crus-galli; Table 5.11, height 15-20 cm, C-1 12.5 g ai/ha): 20% | % herbicidal activity (Lolium multiflorum; Table 5.1, 7 DAT): 20% | % herbicidal activity (Lolium multiflorum; Table 5.8, 21 DAT): 20% | % herbicidal activity (Zea mays; Table 4.1, ZEAMX growth stage 15-16, height 25-30 cm, 7 DAT, 12.5 g ai/ha): 0% | % herbicidal activity (Zea mays; Table 5.11, 7 DAT, height 25-30 cm, C-1 12.5 g ai/ha): 8% | % herbicidal activity (Zea mays; Table 5.7, ZEAMX height 25-30 cm, 7 DAT, 12.5 g ai/ha): 8% | % herbicidal activity (Zea mays; Table 5.8, ZEAMX height 25-30 cm, 21 DAT, 12.5 g ai/ha): 2% | % herbicidal activity (Zea mays; Table 5.9, ZEAMX height 25-30 cm, 28 DAT, 12.5 g ai/ha): 0% | % herbicidal activity (HORVW; Table 5.2, 21 DAT): 0% | % herbicidal activity (HORVW; Table 5.3, 28 DAT): 0% | % herbicidal activity (HORVW; Table 5.8, 21 DAT): 0% | % herbicidal activity (Datura stramonium): 40%
